Experiment [1] deals with T1, purified recombinant human Aggrecanase-1 (rAgg1) (Homo sapiens, UniProt O75173).
T1 sequence (O75173 213-837): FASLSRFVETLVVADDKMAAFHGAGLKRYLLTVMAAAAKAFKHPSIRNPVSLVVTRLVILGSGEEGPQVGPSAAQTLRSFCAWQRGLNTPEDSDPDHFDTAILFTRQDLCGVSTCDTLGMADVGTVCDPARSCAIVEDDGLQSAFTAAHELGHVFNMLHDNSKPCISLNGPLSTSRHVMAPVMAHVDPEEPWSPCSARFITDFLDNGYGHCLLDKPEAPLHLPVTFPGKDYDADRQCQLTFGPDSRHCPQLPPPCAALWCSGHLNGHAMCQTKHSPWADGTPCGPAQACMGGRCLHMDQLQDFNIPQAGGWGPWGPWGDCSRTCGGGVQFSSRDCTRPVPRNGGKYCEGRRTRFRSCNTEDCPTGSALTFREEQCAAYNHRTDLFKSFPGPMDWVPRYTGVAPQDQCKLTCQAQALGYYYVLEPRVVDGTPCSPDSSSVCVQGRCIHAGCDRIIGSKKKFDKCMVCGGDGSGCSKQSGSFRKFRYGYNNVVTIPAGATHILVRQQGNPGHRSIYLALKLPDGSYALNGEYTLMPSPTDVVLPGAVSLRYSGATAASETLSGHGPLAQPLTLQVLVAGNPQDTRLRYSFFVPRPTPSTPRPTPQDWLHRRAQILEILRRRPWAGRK
As to the kind of experiment: In vitro fluorescence screen for Aggrecanase-1 inhibitors. Particulars: for IC50: read-out: Agg1 IC50. The class given is biochemical.

Experiment [2] deals with T2, purified recombinant human Aggrecanase-2 (Ag2t-Phe628-Strep) (Homo sapiens, UniProt Q9UNA0).
T2 construct: the form used is denoted as Ag2t-Phe628-Strep (MW=41,737)
T2 sequence (Q9UNA0 262-628): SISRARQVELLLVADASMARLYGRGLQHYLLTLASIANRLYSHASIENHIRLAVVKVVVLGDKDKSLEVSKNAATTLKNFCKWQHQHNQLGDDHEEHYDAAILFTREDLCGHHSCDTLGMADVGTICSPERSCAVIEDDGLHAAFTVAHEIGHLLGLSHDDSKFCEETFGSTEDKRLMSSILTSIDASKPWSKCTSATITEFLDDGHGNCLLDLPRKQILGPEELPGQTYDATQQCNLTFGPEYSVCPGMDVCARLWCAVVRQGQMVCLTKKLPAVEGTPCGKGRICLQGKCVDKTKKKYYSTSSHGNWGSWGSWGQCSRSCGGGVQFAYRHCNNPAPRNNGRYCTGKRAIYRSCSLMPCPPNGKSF
Kind of experiment: In vitro fluorescence screen for Aggrecanase-2 inhibitors. The class given is biochemical. Particulars: for IC50: read-out: Agg 2 IC50.

SMILES strings stand for the structures. Read-outs that look alike come from different tables or passages of the source.

The term IC50 denotes the concentration needed to halve the response being measured. As to `CC(C)(Cc1ccc(F)cc1)NC(=O)[C@H](CCC(N)=O)NC(=O)c1ccc(-c2ccccc2)cc1` [Example 8LLLLLL, N^2-(biphenyl-4-ylcarbonyl)-N^1-[2-(4-fluorophenyl)-1,1-dimethylethyl]-L-α-glutamamide], the IC50 in experiment [1] (Table 2) was over 25000 nM; in experiment [2] (Table 2), over 100000 nM.

Broadly, the Ki is a dissociation constant, usually derived from enzyme kinetics or from competition with a known ligand. Regarding `CC(C)(Cc1ccc(Cl)cc1)NC(=O)[C@H](CCC(=O)O)NC(=O)c1ccc(-c2cccs2)cc1` [Example 8XXXXXXX, N-[2-(4-chlorophenyl)-1,1-dimethylethyl]-N^2-[4-(2-thienyl)benzoyl]-L-α-glutamine], the half-maximal inhibitory concentration (IC50) in experiment [1] (Table 3) is under 30 nM; in experiment [2] (Table 3) it was 20 to 70 nM. Further, the Ki was 4.5 nM in experiment [1] (Table 3, read-out: Ki Agg1) and 56 nM in experiment [2] (Table 3, read-out: Ki Agg2).

Turning to `COc1cc(COc2ccc(-c3ccc(C(=O)N[C@@H](CCC(=O)O)C(=O)NCC45CC6CC(CC(C6)C4)C5)cc3)cc2)cc(OC)c1` [Example 19B, N-(1-adamantylmethyl)-N^2-(4′-{[(3,5-dimethoxybenzyl)oxy]biphenyl-4-yl}carbonyl)-L-α-glutamine], the IC50 was 3200 nM in experiment [1] (Table 2) and 590 nM in experiment [2] (Table 2).

For the compound `CC(C)(Cc1ccc(Cl)cc1)NC(=O)[C@H](CCC(=O)O)NC(=O)c1ccc(-c2ccc(Cl)cc2)s1` [N-[2-(4-chlorophenyl)-1,1-dimethylethyl]-N^2-{[5-(4-chlorophenyl)-2-thienyl]carbonyl}-L-α-glutamine], the IC50 was under 30 nM in experiment [1] (Table 3) and over 300 nM in experiment [2] (Table 3).

For the compound `O=C(O)CC[C@H](NC(=O)c1ccc2c(c1)Cc1ccccc1-2)C(=O)N[C@H](CO)Cc1ccccc1` [Example 8BBBBBB, N-[(1S)-1-benzyl-2-hydroxyethyl]-N^2-(9H-fluoren-2-ylcarbonyl)-L-α-glutamine], the figures for the IC50 in experiment [1] (Table 2) and in experiment [2] (Table 2) were 470 nM and 2670 nM, respectively.

As for `COc1ccc(-c2ccc(C(=O)N[C@@H](CCC(=O)O)C(=O)NCc3cc(OC)c(OC)c(OC)c3)cc2)cc1OC` [Example 17F, N^2-[(3′,4′-dimethoxybiphenyl-4-yl)carbonyl]-N-(3,4,5-trimethoxybenzyl)-L-α-glutamine], the values for the IC50 in experiment [1] (Table 2) and in experiment [2] (Table 2) were 1700 nM and about 8300 nM, respectively.

For the compound `C[C@@H](CNC(=O)[C@H](CCC(=O)O)NC(=O)c1ccc2c(c1)Cc1ccccc1-2)c1ccccc1` [Example 8JJJJJJ, N^2-(9H-fluoren-2-ylcarbonyl)-N-[(2R)-2-phenylpropyl]-L-α-glutamine], the figures for the IC50 in experiment [1] (Table 2) and in experiment [2] (Table 2) were 300 nM and 943 nM, respectively.

As for `COc1ccc(-c2ccc(C(=O)N[C@@H](CCC(=O)O)C(=O)NC(C)(C)Cc3ccccc3)cc2)c(OC)c1` [Example 17Q, N^2-[(2′,4′-dimethoxybiphenyl-4-yl)carbonyl]-N-(1,1-dimethyl-2-phenylethyl)-L-α-glutamine], the IC50 in experiment [1] (Table 2) was about 13000 nM; in experiment [2] (Table 2) it was over 30000 nM.

For `COc1cc(CNC(=O)[C@H](CCC(=O)O)NC(=O)c2cccc(Oc3ccccc3)c2)cc(OC)c1OC` [Example 8WWWW, N^2-(3-phenoxybenzoyl)-N^1-(3,4,5-trimethoxybenzyl)-L-α-glutamine], the IC50 in experiment [1] (Table 2) was 8300 nM; in experiment [2] (Table 2) it was over 67000 nM.

As for `O=C(O)CC[C@H](NC(=O)c1ccc(-c2ccc3[nH]ccc3c2)cc1)C(=O)NCC12CC3CC(CC(C3)C1)C2` [Example 17CC, N-(1-adamantylmethyl)-N^2-[4-(1H-indol-5-yl)benzoyl]-L-α-glutamine], the IC50 was 2900 nM in experiment [1] (Table 2) and 2970 nM in experiment [2] (Table 2).

With `O=C(O)CC[C@H](NC(=O)c1ccc(-c2ccccc2)cc1)C(=O)NCCCCO` [Example 5, N^2-(1,1′-biphenyl-4-ylcarbonyl)-N^1-(4-hydroxybutyl)-L-alpha-glutamine], in experiment [1] (Table 1), the IC50 turned out to be 1800 nM.

With `O=C(O)CC[C@H](NC(=O)c1cccc2c1Cc1ccccc1-2)C(=O)NCCCc1ccccc1` [Example 8JJJJ, N^2-(9H-fluoren-1-ylcarbonyl)-N^1-(3-phenylpropyl)-L-α-glutamine], the IC50 in experiment [1] (Table 1) is over 50000 nM.

Take `NC(=O)[C@@H](CCC(=O)O)NC(=O)c1ccc(-c2ccccc2)cc1` [Example 4, N^2-(1,1′-biphenyl-4-ylcarbonyl)-D-alpha-glutamine]: the IC50 in experiment [1] (Table 1) was determined as 1100 nM.

`CC(C)(Cc1ccccc1)NC(=O)[C@H](CCC(=O)O)NC(=O)c1cccc(-c2cccs2)c1` [N-(1,1-dimethyl-2-phenylethyl)-N^2-[3-(2-thienyl)benzoyl]-L-α-glutamine]: the IC50 in experiment [1] (Table 3) is over 8300 nM.

Consider `O=C(O)CC[C@H](NC(=O)c1ccc(-c2ccccc2)cc1)C(=O)NCc1ccccc1F` [Example 8ZZ, N^2-(1,1′-biphenyl-4-ylcarbonyl)-N^1-(2-fluorobenzyl)-L-α-glutamine], for which the IC50 in experiment [1] (Table 1) was determined as 210 nM.

Consider `CCN(CC)C(=O)[C@H](CCC(=O)O)NC(=O)c1ccc(-c2ccccc2)cc1` [Example 8EEE, N^2-(biphenyl-4-ylcarbonyl)-N^1,N^1-diethyl-L-α-glutamine], for which, in experiment [1] (Table 1), the IC50 came out at 7900 nM.

`COc1cc(C(=O)N[C@@H](CCC(=O)O)C(=O)NCc2ccccc2)cc(OC)c1-c1ccccc1` [Example 17AAA, N^1-benzyl-N^2-[(2,6-dimethoxy-1,1′-biphenyl-4-yl)carbonyl]-L-α-glutamine]: the “Agg1 IC50 (nM)” value in experiment [1] (Table 1) is listed as “no inh”.

Turning to `Cc1ccc(CNC(=O)[C@H](CCC(=O)O)NC(=O)c2ccc(-c3ccccc3)cc2)cc1` [Example 8III, N^2-(1,1′-biphenyl-4-ylcarbonyl)-N^1-(4-methylbenzyl)-L-α-glutamine], the IC50 in experiment [1] (Table 1) is 120 nM.

Regarding `Cc1cccc(C)c1-c1ccc(C(=O)N[C@@H](CCC(=O)O)C(=O)NCc2ccccc2)cc1` [Example 13F, N^1-benzyl-N^2-[(2′,6′-dimethyl-1,1′-biphenyl-4-yl)carbonyl]-L-α-glutamine], the IC50 in experiment [1] (Table 1) is about 200 nM.

Regarding `Cc1ccccc1CNC(=O)[C@H](CCC(=O)O)NC(=O)c1ccc(-c2ccccc2)cc1` [Example 8EE, N^2-(1,1′-biphenyl-4-ylcarbonyl)-N^1-(2-methylbenzyl)-L-α-glutamine], in experiment [1] (Table 1), the IC50 is 200 nM.

Turning to `O=C(O)CC[C@H](NC(=O)c1ccc(-c2nccs2)cc1)C(=O)NCc1ccccc1` [Example 12D, N^1-benzyl-N^2-[4-(1,3-thiazol-2-yl)benzoyl]-L-α-glutamine], the IC50 in experiment [1] (Table 1) was over 100000 nM.

Take `CC(C)(C)CCNC(=O)[C@H](CCC(=O)O)NC(=O)c1ccc(-c2ccccc2)cc1` [Example 8LLL, N^2-(biphenyl-4-ylcarbonyl)-N^1-(3,3-dimethylbutyl)-L-α-glutamine]: in experiment [1] (Table 1), the IC50 was determined as 230 nM.

On to `Cc1c(C(=O)Nc2ccc(-c3ccc(C(=O)N[C@@H](CCC(=O)O)C(=O)O)cc3)cc2)oc2ccccc12` [Example 27, N-[(4′-{[(3-Methyl-1-benzofuran-2-yl)carbonyl]-amino}-1,1′-biphenyl-4-yl)carbonyl]-L-α-glutamic acid], for which the IC50 in experiment [1] (Table 1) came to 400 nM.

On to `COc1cc(CNC(=O)[C@H](CCC(=O)O)NC(=O)c2ccc3c(c2)Cc2ccccc2-3)cc(OC)c1OC` [Example 8KKKK, N^2-(9H-fluoren-2-ylcarbonyl)-N^1-(3,4,5-trimethoxybenzyl)-L-α-glutamine], for which the Ki in experiment [1] (Table 1, enzyme not given, column follows Agg1 IC50, read-out: Ki) amounted to 4 nM. Moreover, in experiment [1] (Table 1), the IC50 was under 30 nM.

For the compound `CC(C)(NC(=O)[C@H](CCC(=O)O)NC(=O)c1ccc(-c2ccccc2)cc1)c1ccccc1` [Example 8TTT, N^2-(biphenyl-4-ylcarbonyl)-N^1-(1-methyl-1-phenylethyl)-L-α-glutamine], the IC50 in experiment [1] (Table 1) is over 10000 nM.

Take `Nc1ccc(CNC(=O)[C@H](CCC(=O)O)NC(=O)c2ccc(-c3ccccc3)cc2)cc1` [Example 8AAAA, N^1-(4-aminobenzyl)-N^2-(1,1′-biphenyl-4-ylcarbonyl)-L-α-glutamine]: in experiment [1] (Table 1), the IC50 is 100 nM.

As for `O=C(O)CC[C@H](NC(=O)c1ccc(-c2ccc(NC(=O)c3ccco3)cc2)cc1)C(=O)NCc1ccccc1` [Example 24A, N^1-benzyl-N^2-{[4′-(2-furoylamino)-1,1′-biphenyl-4-yl]carbonyl}-L-α-glutamine], the IC50 in experiment [1] (Table 1) amounted to 1100 nM.

Turning to `O=C(O)CC[C@H](NC(=O)c1cccc(-c2ccccc2)c1)C(=O)NCc1ccccc1` [Example 17WW, N^1-benzyl-N^2-(1,1′-biphenyl-3-ylcarbonyl)-L-α-glutamine], the “Agg1 IC50 (nM)” value in experiment [1] (Table 1) is listed as “no inh”.

As to `CCc1ccc(-c2ccc(C(=O)N[C@@H](CCC(=O)O)C(=O)NCc3ccccc3)cc2)cc1` [Example 13C, N^1-benzyl-N^2-[(4′-ethyl-1,1′-biphenyl-4-yl)carbonyl]-L-α-glutamine], the IC50 in experiment [1] (Table 1) was 9600 nM.
